Source: patent US11747321B2, “Apparatuses for cell mapping via impedance measurements and methods to operate the same” (President and Fellows of Harvard College, priority 2020, dated 2023)

Columns and labels:
[1] = tested on: MDCK cells
Description: Ethylenediaminetetraacetic acid (EDTA) is applied to the cells. EDTA is a calcium chelator that removes Ca^2+ needed for integrin proteins to maintain cell adhesion.
FIG. 6b is a data plot showing mean normalized impedances for different regions of the cell culture over time as specified in the map 601. FIG. 6cc are histograms of the normalized impedance values before, during, and after a washout of EDTA across the array.

[2] = tested on: MDCK cells; assay: Wound healing assay: electrochemically patterned wound, regrowth measured by impedance mapping; assay type: cell-based, Canine; conditions: 1 μM, over 72 hours, control culture shows regrowth
Description: This example describes a combined application of both the cross-electrode impedance mapping and cell patterning is a wound healing assay.
These assays gauge cell growth rate and metabolism and can be useful for screening drugs affecting these parameters. Compared to the electrochemical patterning described herein, other tools mechanically generate a wound in a cell culture via a mechanical scratch which is both difficult to control and limiting in terms of wound pattern.
In this example, a wound is made in MDCK cells and then the growth is mapped in real-time. […] These patterns were defined by applying electrode currents of −10 nA for 40 s versus a Ag/AgCl pseudo reference electrode. The regrowth of the culture was then measured using the impedance mapping method.

## O=C(O)CN(CCN(CC(=O)O)CC(=O)O)CC(=O)O [EDTA, Ethylenediaminetetraacetic acid]
[1]; 5 mM EDTA application, normalized impedance maps
  time course of cell detachment with EDTA applied: ~50 min
[1]; EDTA washed out by adding normal culture media
  time course of cell re-attachment after EDTA washout: ~200 min

## C=C1[C@@H](C)[C@H]2[C@H](Cc3ccccc3)NC(=O)[C@]23OC(=O)/C=C/[C@H](O)CCC[C@@H](C)C/C=C/[C@H]3[C@@H]1O [cytochalasin B]
[2]
  regrowth of wounded cell culture (normalized cross-electrode impedance maps): very little growth
